Target: T1, human σ1 receptor (Homo sapiens, UniProt Q99720)
T1 construct: expressed in transfected cells; host or cells: HEK-293 (membranes)
Test: Human σ1 receptor radioligand assay
Type: binding
Settings: transfected HEK-293 membranes, 5 nM [3H](+)-pentazocine as radioligand
Description: Human σ1 Receptor Radioligand Assay
To investigate binding properties of test compounds to human σ1 receptor, transfected HEK-293 membranes and [^3H](+)-pentazocine (Perkin Elmer, NET-1056), as the radioligand, were used. The assay was carried out with 7 μg of membrane suspension, 5 nM of [^3H](+)-pentazocine in either absence or presence of either buffer or 10 μM Haloperidol for total and non-specific binding, respectively. Binding buffer contained Tris-HCl 50 mM at pH 8. Plates were incubated at 37° C. for 120 minutes. After the incubation period, the reaction mix was then transferred to Multiscreen HTS, FC plates (Millipore), filtered and plates were washed 3 times with ice-cold 10 mM Tris-HCL (pH7.4). Filters were dried and counted at approximately 40% efficiency in a MicroBeta scintillation counter (Perkin-Elmer) using EcoScint liquid scintillation cocktail

T1 sequence (Q99720 whole entry): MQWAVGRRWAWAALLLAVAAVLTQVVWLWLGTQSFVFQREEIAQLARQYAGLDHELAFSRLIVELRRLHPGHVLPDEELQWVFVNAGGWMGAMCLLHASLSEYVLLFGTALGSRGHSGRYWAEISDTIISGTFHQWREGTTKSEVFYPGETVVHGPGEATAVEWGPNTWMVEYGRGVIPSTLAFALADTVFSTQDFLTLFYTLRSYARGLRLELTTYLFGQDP

`CCN1C[C@]2(CC[C@H](NCc3ccccc3)CC2)OC2(CC2)C1=O` [Example 1, (5s,8s)-8-(benzylamino)-12-ethyl-4-oxa-12-azadispiro[2.1.5.3]tridecan-13-one] and `CCN1C[C@]2(CC[C@@H](NCc3ccccc3)CC2)OC2(CC2)C1=O` [Example 2, (5r,8r)-8-(benzylamino)-12-ethyl-4-oxa-12-azadispiro[2.1.5.3]tridecan-13-one] cannot be ordered by Ki: ≥ 500 nM for the first, < 500 nM for the second.

`CCN1C[C@]2(CC[C@H](N(C)CCc3ccccc3)CC2)OC2(CC2)C1=O` [Example 3, (5s,8s)-12-ethyl-8[methyl(2-phenylethyl)amino]-4-oxa-12-azadispiro[2.1.5.3]tridecan-13-one] and `CCN1C[C@]2(CC[C@@H](N(C)CCc3ccccc3)CC2)OC2(CC2)C1=O` [Example 4, (5r,8r)-12-ethyl-8-[methyl(2-phenylethyl)amino]-4-oxa-12-azadispiro[2.1.5.3]tridecan-13-one] cannot be ordered by Ki: < 100 nM for the first, < 100 nM for the second.

`CCN1C[C@]2(CC[C@H](N(C)Cc3ccccc3)CC2)OC2(CC2)C1=O` [Example 5, (5s,8s)-8-[benzyl(methyl)amino]-12-ethyl-4-oxa-12-azadispiro[2.1.5.3]tridecan-13-one] and `CCN1C[C@]2(CC[C@@H](N(C)Cc3ccccc3)CC2)OC2(CC2)C1=O` [Example 16, (5r,8r)-8-[benzyl(methyl)amino]-12-ethyl-4-oxa-12-azadispiro[2.1.5.3]tridecan-13-one] cannot be ordered by Ki: < 100 nM for the first, < 100 nM for the second.

`CCN1C[C@]2(CC[C@H](NCCc3ccccc3)CC2)OC2(CC2)C1=O` [Example 6, (5s,8s)-12-ethyl-8-[(2-phenylethyl)amino]-4-oxa-12-azadispiro[2.1.5.3]tridecan-13-one] and `CCN1C[C@]2(CC[C@@H](NCCc3ccccc3)CC2)OC2(CC2)C1=O` [Example 7, (5r,8r)-12-ethyl-8-[(2-phenylethyl)amino]-4-oxa-12-azadispiro[2.1.5.3]tridecan-13-one] cannot be ordered by Ki: < 500 nM for the first, < 100 nM for the second.

`CN(Cc1ccccc1)[C@H]1CC[C@@]2(CC1)CN(c1ccccc1)C(=O)C1(CC1)O2` [Example 8, (5s,8s)-8-[benzyl(methyl)amino]-12-phenyl-4-oxa-12-azadispiro[2.1.5.3]tridecan-13-one] and `CN(Cc1ccccc1)[C@H]1CC[C@]2(CC1)CN(c1ccccc1)C(=O)C1(CC1)O2` [Example 14, (5r,8r)-8-[benzyl(methyl)amino]-12-phenyl-4-oxa-12-azadispiro[2.1.5.3]tridecan-13-one] cannot be ordered by Ki: < 100 nM for the first, < 500 nM for the second.

`CN(CCc1ccccc1)[C@H]1CC[C@@]2(CC1)CN(c1ccccc1)C(=O)C1(CC1)O2` [Example 9, (5s,8s)-8-(methyl(2-phenylethyl)amino]-12-phenyl-4-oxa-12-azadispiro[2.1.5.3]tridecan-13-one] and `CN(CCc1ccccc1)[C@H]1CC[C@]2(CC1)CN(c1ccccc1)C(=O)C1(CC1)O2` [Example 15, (5r,8r)-8-[methyl(2-phenylethyl)amino]-12-phenyl-4-oxa-12-azadispiro[2.1.5.3]tridecan-13-one] cannot be ordered by Ki: < 500 nM for the first, < 500 nM for the second.

`O=C1N(c2ccccc2)C[C@]2(CC[C@H](NCc3ccccc3)CC2)OC12CC2` [Example 10, (5s,8s)-8-(benzylamino)-12-phenyl-4-oxa-12-azadispiro[2.1.5.3]tridecan-13-one] and `O=C1N(c2ccccc2)C[C@]2(CC[C@@H](NCc3ccccc3)CC2)OC12CC2` [Example 12, (5r,8r)-8-(benzylamino)-12-phenyl-4-oxa-12-azadispiro[2.1.5.3]tridecan-13-one] cannot be ordered by Ki: ≥ 500 nM for the first, ≥ 500 nM for the second.

`O=C1N(c2ccccc2)C[C@]2(CC[C@H](NCCc3ccccc3)CC2)OC12CC2` [Example 11, (5s,8s)-12-phenyl-8-[(2-phenylethyl)amino]-4-oxa-12-azadispiro[2.1.5.3]tridecan-13-one] and `O=C1N(c2ccccc2)C[C@]2(CC[C@@H](NCCc3ccccc3)CC2)OC12CC2` [Example 13] cannot be ordered by Ki: < 500 nM for the first, ≥ 500 nM for the second.

`CCN1CC2(CC2)O[C@]2(CC[C@@H](N(C)Cc3ccccc3)CC2)C1` [Example 17, (5s,8s)-N-benzyl-12-ethyl-N-methyl-4-oxa-12-azadispiro[2.1.5.3]tridecan-8-amine] and `CCN1CC2(CC2)O[C@]2(CC[C@H](N(C)Cc3ccccc3)CC2)C1` [Example 18, (5r,8r)-N-benzyl-12-ethyl-N-methyl-4-oxa-12-azadispiro[2.1.5.3]tridecan-8-amine] cannot be ordered by Ki: < 500 nM for the first, < 500 nM for the second.

`CN(Cc1ccccc1)[C@H]1CC[C@@]2(CC1)CN(c1ccccc1)CC1(CC1)O2` [Example 19, (5s,8s)-N-benzyl-N-methyl-12-phenyl-4-oxa-12-azadispiro[2.1.5.3]tridecan-8-amine] and `CN(Cc1ccccc1)[C@H]1CC[C@]2(CC1)CN(c1ccccc1)CC1(CC1)O2` [Example 20, (5r,8r)-N-benzyl-N-methyl-12-phenyl-4-oxa-12-azadispiro[2.1.53]tridecan-8-amine] cannot be ordered by Ki: < 100 nM for the first, < 100 nM for the second.

`CCN1C[C@]2(CC[C@@H](NC)CC2)OC2(CC2)C1=O` [Example 21, (5r,8r)-12-ethyl-8-(methylamino)-4-oxa-12-azadispiro[2.1.5.3]tridecan-13-one acetate] and `CCN1C[C@]2(CC[C@H](NC)CC2)OC2(CC2)C1=O` [Example 22, (5s,8s)-12-ethyl-8-(methylamino)-4-oxa-12-azadispiro[2.1.5.3]tridecan-13-one acetate] cannot be ordered by Ki: ≥ 500 nM for the first, ≥ 500 nM for the second.

`CN[C@H]1CC[C@@]2(CC1)CN(c1ccccc1)C(=O)C1(CC1)O2` [Example 23, (5s,8s)-8-(methylamino)-12-phenyl-4-oxa-12-azadispiro[2.1.5.3]tridecan-13-one acetate] and `CN[C@H]1CC[C@]2(CC1)CN(c1ccccc1)C(=O)C1(CC1)O2` [Example 24, (5r,8r)-8-(methylamino)-12-phenyl-4-oxa-12-azadispiro[2.1.5.3]tridecan-13-one acetate] cannot be ordered by Ki: ≥ 500 nM for the first, ≥ 500 nM for the second.

`CN[C@H]1CC[C@@]2(CC1)CN(c1ccccc1)CC1(CC1)O2` [Example 25, (5s,8s)-N-methyl-12-phenyl-4-oxa-12-azadispiro[2.1.5.3]tridecan-8-amine acetate] and `CN[C@H]1CC[C@]2(CC1)CN(c1ccccc1)CC1(CC1)O2` [Example 26, (5r,8r)-N-rnethyl-12-phenyl-4-oxa-12-azadispiro[2.1.5.3]tridecan-8-amine acetate] cannot be ordered by Ki: ≥ 500 nM for the first, ≥ 500 nM for the second.

`CCN1C[C@]2(CC[C@@H](N(C)CCC(C)C)CC2)OC2(CC2)C1=O` [Example 27, (5r,8r)-12-ethyl-8-[methyl(3-methylbutyl)amino]-4-oxa-12-azadispiro[2.1.5.3]tridecan-13-one] and `CCN1C[C@]2(CC[C@H](N(C)CCC(C)C)CC2)OC2(CC2)C1=O` [Example 28, (5s,8s)-12-ethyl-8-[rnethyl(3-methylbutyl)amino]-4-oxa-12-azadispiro[2.1.5.3]tridecan-13-one] cannot be ordered by Ki: < 500 nM for the first, < 500 nM for the second.

`CC(C)CCN(C)[C@H]1CC[C@@]2(CC1)CN(c1ccccc1)C(=O)C1(CC1)O2` [Example 29, (5s,8s)-8-[methyl(3-methylbutyl)amino]-12-phenyl-4-oxa-12-azadispiro[2.1.5.3]tridecan-13-one] and `CC(C)CCN(C)[C@H]1CC[C@]2(CC1)CN(c1ccccc1)C(=O)C1(CC1)O2` [Example 30, (5r,8r)-8-[methyl(3-methylbutyl)amino]-12-phenyl-4-oxa-12-azadispiro[2.1.5.3]tridecan-13-one] cannot be ordered by Ki: < 500 nM for the first, < 100 nM for the second.

`CC(C)CCN(C)[C@H]1CC[C@@]2(CC1)CN(c1ccccc1)CC1(CC1)O2` [Example 31, (5s,8s)-N-methyl-N-(3-methylbutyl)-12-phenyl-4-oxa-12-azadispiro[2.1.5.3]tridecan-8-amine] and `CC(C)CCN(C)[C@H]1CC[C@]2(CC1)CN(c1ccccc1)CC1(CC1)O2` [Example 32, (5r,8r)-N-rnethyl-N-(3-methylbutyl)-12-phenyl-4-oxa-12-azadispiro[2.1.5.3]tridecan-8-amine] cannot be ordered by Ki: < 100 nM for the first, < 100 nM for the second.

`CCN1C[C@]2(CC[C@H](N(C)CC(C)C)CC2)OC2(CC2)C1=O` [Example 33, (5s,8s)-12-ethyl-8-[methyl(2-methylpropyl)amino]-4-oxa-12-azadispiro[2.1.5.3]tridecan-13-one] and `CCN1C[C@]2(CC[C@H](N(C)CC(C)C)CC2)OCC1=O` [Example 38, (6s,9s)-4-ethyl-9-(isobutyl(methyl)amino)-1-oxa-4-azaspiro[5.5]undecan-3-one] cannot be ordered by Ki: < 500 nM for the first, < 500 nM for the second.

`CN(CCc1ccccc1)[C@H]1CC[C@]2(CC1)CN(c1ccccc1)CC1(CC1)O2` [Example 34, (5r,8r)-N-methyl-12-phenyl-N-(2-phenylethyl)-4-oxa-12-azadispiro[2.1.5.3]tridecan-8-amine] and `CCN1CC2(CC2)O[C@]2(CC[C@H](N(C)CCC(C)C)CC2)C1` [Example 35, (5r,8r)-12-ethyl-N-methyl-N-(3-methylbutyl)-4-oxa-12-azadispiro[2.1.5.3]tridecan-8-amine] cannot be ordered by Ki: < 100 nM for the first, < 500 nM for the second.

`CCN1C[C@]2(CC[C@H](NCc3ccccc3)CC2)OCC1=O` [Example 36, (6s,9s)-9-(benzylamino)-4-ethyl-1-oxa-4-azaspiro[5.5]undecan-3-one] and `CCN1C[C@]2(CC[C@@H](NCc3ccccc3)CC2)OCC1=O` [Example 37, (6r,9r)-9-(benzylamino)-4-ethyl-1-oxa-4-azaspiro[5.5]undecan-3-one] cannot be ordered by Ki: ≥ 500 nM for the first, ≥ 500 nM for the second.

`CCN1C[C@]2(CC[C@H](NCc3ccccc3)CC2)OC(C)(C)C1=O` [Example 39, (6s,9s)-9-(benzylamino)-4-ethyl-2,2-dimethyl-1-oxa-4-azaspiro[5.5]undecan-3-one] was tested, and the Ki was ≥ 500 nM.

— US10183918B2, “Oxa-azaspiro compounds having activity against pain” (LABORATORIOS DEL DR. ESTEVE S.A., priority 2015, dated 2019)
